Results reported in US20110014294A1, “STIMULATION OF OCULAR RETROBULBAR BLOOD FLOW USING OCULAR IRRITANTS” (PHARMALIGHT INC., priority 2008, published 2011).

Key:
eye = assay: Discomfort and irritation of animals after benzalkonium chloride compositions (Example 2); format: in vivo
retrobulbar blood flow = assay: Effect of benzalkonium chloride compositions on retrobulbar blood flow (Example 2); format: in vivo; conditions: benzalkonium chloride (0.01%, 0.05, 0.1%, 0.2% in isotonic PBS pH 7.4), sufficient amount, as a mist; animals
Procedure: The effect of compositions including benzalkonium chloride administered in accordance with the teachings herein is performed substantially as described in Example 1. Specifically, four isotonic PBS compositions having pH of 7.4 are prepared having 0.01%, 0.05, 0.1% and 0.2% benzalkonium chloride, respectively, as an ocular irritant.
The compositions are administered to animals and the effect on retrobulbar blood flow is determined, substantially as described above.

Substance: benzalkonium chloride
- Discomfort and irritation (eye; benzalkonium chloride composition as a mist): little or no substantial discomfort and irritation
- Discomfort and irritation (eye; benzalkonium chloride composition as drops): cause discomfort and irritation
- Effect on retinal blood flow (retrobulbar blood flow): substantial increase in retinal blood flow
